Experiments:
[1] = target: Serine/threonine-protein kinase PAK 1 (Homo sapiens) (UniProt Q13153); conditions: Compound concentration 1000.0 nM
[2] = target: Receptor tyrosine-protein kinase erbB-4 (Homo sapiens) (UniProt Q15303); conditions: Compound concentration 1000.0 nM
[3] = target: NT-3 growth factor receptor (Homo sapiens) (UniProt Q16288); conditions: Compound concentration 1000.0 nM
[4] = target: Cyclin-dependent kinase 18 (Homo sapiens) (UniProt Q07002); conditions: Compound concentration 1000.0 nM
[5] = target: Serine/threonine-protein kinase 3 (Homo sapiens) (UniProt Q13188); conditions: Compound concentration 1000.0 nM
[6] = target: Tyrosine-protein kinase JAK1 (Homo sapiens) (UniProt P23458); conditions: Compound concentration 1000.0 nM
[7] = target: Tyrosine-protein kinase FRK (Homo sapiens) (UniProt P42685); conditions: Compound concentration 1000.0 nM
[8] = target: Mitogen-activated protein kinase 7 (Homo sapiens) (UniProt Q13164); conditions: Compound concentration 1000.0 nM
[9] = target: Bone morphogenetic protein receptor type-1B (Homo sapiens) (UniProt O00238); conditions: Compound concentration 1000.0 nM
[10] = target: 5-hydroxytryptamine receptor 5A (Homo sapiens) (UniProt P47898); conditions: Compound concentration 10.0 uM
[11] = target: Dual specificity mitogen-activated protein kinase kinase 5 (Homo sapiens) (UniProt Q13163); conditions: Compound concentration 1000.0 nM
[12] = target: Serine/threonine-protein kinase BRSK1 (Homo sapiens) (UniProt Q8TDC3); conditions: Compound concentration 1000.0 nM
[13] = target: Serine/threonine-protein kinase 25 (Homo sapiens) (UniProt O00506); conditions: Compound concentration 1000.0 nM
[14] = target: Serine/threonine-protein kinase SIK3 (Homo sapiens) (UniProt Q9Y2K2); conditions: Compound concentration 1000.0 nM
[15] = target: Discoidin domain-containing receptor 2 (Homo sapiens) (UniProt Q16832); conditions: Compound concentration 1000.0 nM
Discoidin domain-containing receptor 2 (Homo sapiens), sequence (Q16832 whole entry, the tested form may be a part, canonical isoform): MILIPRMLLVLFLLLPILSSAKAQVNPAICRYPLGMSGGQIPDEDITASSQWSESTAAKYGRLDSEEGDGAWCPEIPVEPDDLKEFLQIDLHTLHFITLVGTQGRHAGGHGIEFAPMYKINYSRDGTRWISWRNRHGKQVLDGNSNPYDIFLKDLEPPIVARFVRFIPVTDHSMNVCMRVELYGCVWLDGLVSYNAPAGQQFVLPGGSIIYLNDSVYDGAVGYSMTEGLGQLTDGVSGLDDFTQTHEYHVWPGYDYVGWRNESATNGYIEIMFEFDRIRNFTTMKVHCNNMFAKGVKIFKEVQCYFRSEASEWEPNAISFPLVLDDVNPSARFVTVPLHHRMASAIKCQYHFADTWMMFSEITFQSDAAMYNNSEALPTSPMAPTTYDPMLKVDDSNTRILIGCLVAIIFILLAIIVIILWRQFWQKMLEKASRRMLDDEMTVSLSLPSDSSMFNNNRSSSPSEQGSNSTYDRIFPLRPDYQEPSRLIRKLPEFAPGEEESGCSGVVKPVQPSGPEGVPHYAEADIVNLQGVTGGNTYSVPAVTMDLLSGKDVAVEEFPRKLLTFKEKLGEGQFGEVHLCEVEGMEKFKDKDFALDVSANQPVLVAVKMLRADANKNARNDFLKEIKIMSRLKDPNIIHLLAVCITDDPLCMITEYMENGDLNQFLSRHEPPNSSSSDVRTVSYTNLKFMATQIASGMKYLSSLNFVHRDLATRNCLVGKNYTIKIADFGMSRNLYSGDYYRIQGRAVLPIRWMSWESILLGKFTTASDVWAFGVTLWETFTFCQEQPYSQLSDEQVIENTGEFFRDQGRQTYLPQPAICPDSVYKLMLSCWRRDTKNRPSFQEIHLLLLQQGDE

[16] = tested on: Phosphatidylinositol 4,5-bisphosphate 3-kinase catalytic subunit alpha isoform (Homo sapiens), P42336 [E545A]; conditions: Compound concentration 1000.0 nM
[17] = target: Glycogen synthase kinase-3 beta (Homo sapiens) (UniProt P49841); conditions: Compound concentration 1000.0 nM
[18] = target: Serine/threonine-protein kinase WNK3 (Homo sapiens) (UniProt Q9BYP7); conditions: Compound concentration 1000.0 nM
Serine/threonine-protein kinase WNK3 (Homo sapiens), sequence (Q9BYP7 whole entry): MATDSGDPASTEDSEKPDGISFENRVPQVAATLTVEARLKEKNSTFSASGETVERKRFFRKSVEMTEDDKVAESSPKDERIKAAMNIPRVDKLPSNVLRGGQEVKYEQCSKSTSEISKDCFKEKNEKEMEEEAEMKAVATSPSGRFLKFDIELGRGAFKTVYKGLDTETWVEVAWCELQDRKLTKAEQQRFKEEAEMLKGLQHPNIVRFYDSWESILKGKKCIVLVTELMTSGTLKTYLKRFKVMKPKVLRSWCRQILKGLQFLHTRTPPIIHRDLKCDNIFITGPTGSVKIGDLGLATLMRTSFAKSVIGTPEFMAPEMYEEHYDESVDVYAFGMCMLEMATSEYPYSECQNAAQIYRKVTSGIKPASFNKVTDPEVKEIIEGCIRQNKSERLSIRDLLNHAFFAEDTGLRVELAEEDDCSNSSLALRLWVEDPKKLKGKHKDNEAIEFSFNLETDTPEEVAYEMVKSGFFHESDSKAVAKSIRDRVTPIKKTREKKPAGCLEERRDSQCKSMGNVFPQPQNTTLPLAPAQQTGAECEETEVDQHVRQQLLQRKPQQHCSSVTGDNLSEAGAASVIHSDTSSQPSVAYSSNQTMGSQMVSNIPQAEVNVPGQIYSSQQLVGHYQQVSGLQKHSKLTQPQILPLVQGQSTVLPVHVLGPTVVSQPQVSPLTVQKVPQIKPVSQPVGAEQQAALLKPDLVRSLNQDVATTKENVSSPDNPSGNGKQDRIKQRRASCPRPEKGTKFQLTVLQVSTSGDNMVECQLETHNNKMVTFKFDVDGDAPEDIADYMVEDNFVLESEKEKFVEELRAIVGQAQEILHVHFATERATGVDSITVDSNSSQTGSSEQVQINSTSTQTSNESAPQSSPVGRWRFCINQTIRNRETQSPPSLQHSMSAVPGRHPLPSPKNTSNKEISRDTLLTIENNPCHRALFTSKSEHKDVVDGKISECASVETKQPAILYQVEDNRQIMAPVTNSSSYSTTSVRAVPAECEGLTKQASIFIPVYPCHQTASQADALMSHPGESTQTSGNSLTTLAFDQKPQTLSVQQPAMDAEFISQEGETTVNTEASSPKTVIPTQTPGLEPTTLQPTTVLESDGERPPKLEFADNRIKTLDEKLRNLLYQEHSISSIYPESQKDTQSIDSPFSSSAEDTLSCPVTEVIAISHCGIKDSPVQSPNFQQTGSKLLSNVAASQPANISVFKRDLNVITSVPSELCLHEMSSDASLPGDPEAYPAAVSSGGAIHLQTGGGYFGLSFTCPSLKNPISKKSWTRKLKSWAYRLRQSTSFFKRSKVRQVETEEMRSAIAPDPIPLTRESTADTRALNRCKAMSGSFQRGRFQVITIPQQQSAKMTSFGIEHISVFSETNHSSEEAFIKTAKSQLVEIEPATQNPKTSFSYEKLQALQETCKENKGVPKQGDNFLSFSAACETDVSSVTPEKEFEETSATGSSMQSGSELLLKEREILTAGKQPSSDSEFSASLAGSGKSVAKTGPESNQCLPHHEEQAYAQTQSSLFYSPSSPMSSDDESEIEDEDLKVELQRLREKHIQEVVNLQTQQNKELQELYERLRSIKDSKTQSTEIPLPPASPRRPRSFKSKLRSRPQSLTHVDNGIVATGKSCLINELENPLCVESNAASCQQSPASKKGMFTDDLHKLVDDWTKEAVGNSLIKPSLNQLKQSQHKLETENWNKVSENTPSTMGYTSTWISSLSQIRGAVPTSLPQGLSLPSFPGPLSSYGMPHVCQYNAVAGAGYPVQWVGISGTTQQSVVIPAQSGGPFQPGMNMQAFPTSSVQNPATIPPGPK

[19] = target: 5'-AMP-activated protein kinase catalytic subunit alpha-1 (Homo sapiens) (UniProt Q13131); conditions: Compound concentration 1000.0 nM
[20] = target: TGF-beta receptor type-1 (Homo sapiens) (UniProt P36897); conditions: Compound concentration 1000.0 nM
[21] = target: Serine/threonine-protein kinase DCLK2 (Homo sapiens) (UniProt Q8N568); conditions: Compound concentration 1000.0 nM
[22] = target: Beta-2 adrenergic receptor (Homo sapiens) (UniProt P07550); conditions: Compound concentration 10.0 uM
[23] = target: Mast/stem cell growth factor receptor Kit (Homo sapiens) (UniProt P10721); conditions: Compound concentration 1000.0 nM
Mast/stem cell growth factor receptor Kit (Homo sapiens), sequence (P10721 whole entry): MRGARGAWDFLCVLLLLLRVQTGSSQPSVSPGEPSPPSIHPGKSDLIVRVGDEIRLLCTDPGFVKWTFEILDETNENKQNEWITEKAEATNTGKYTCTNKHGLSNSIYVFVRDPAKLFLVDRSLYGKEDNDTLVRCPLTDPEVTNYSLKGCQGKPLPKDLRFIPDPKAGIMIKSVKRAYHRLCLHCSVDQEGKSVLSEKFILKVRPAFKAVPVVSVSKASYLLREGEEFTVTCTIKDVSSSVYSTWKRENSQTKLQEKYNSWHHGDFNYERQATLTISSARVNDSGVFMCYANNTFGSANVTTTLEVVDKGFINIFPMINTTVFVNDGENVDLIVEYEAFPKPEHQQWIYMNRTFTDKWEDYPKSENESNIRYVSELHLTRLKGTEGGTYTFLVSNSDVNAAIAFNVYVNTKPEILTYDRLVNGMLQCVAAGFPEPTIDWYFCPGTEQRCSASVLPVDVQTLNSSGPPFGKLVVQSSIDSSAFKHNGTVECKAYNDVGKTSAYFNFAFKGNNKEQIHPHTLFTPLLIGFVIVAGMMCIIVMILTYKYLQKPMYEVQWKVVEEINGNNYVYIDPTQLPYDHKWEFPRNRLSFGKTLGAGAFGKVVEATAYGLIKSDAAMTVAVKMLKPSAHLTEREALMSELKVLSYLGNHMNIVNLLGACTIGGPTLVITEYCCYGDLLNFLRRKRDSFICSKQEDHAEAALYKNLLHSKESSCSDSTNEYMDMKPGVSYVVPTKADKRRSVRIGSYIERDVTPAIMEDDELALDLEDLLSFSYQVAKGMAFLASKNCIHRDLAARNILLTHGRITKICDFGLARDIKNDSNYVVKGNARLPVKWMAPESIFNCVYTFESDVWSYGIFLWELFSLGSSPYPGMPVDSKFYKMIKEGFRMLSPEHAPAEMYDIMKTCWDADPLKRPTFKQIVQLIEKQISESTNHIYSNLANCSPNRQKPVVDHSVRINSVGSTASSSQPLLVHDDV

[24] = tested on: Epidermal growth factor receptor (Homo sapiens), P00533 [L861Q]; conditions: Compound concentration 1000.0 nM
[25] = target: Mitogen-activated protein kinase kinase kinase 1 (Homo sapiens) (UniProt Q13233); conditions: Compound concentration 1000.0 nM
[26] = target: Dual specificity protein kinase CLK3 (Homo sapiens) (UniProt P49761); conditions: Compound concentration 1000.0 nM
[27] = tested on: Epidermal growth factor receptor (Homo sapiens), P00533 [UNDEFINED MUTATION]; conditions: Compound concentration 1000.0 nM
[28] = target: Tyrosine-protein kinase HCK (Homo sapiens) (UniProt P08631); conditions: Compound concentration 1000.0 nM
Tyrosine-protein kinase HCK (Homo sapiens), sequence (P08631 2-526 limits assumed): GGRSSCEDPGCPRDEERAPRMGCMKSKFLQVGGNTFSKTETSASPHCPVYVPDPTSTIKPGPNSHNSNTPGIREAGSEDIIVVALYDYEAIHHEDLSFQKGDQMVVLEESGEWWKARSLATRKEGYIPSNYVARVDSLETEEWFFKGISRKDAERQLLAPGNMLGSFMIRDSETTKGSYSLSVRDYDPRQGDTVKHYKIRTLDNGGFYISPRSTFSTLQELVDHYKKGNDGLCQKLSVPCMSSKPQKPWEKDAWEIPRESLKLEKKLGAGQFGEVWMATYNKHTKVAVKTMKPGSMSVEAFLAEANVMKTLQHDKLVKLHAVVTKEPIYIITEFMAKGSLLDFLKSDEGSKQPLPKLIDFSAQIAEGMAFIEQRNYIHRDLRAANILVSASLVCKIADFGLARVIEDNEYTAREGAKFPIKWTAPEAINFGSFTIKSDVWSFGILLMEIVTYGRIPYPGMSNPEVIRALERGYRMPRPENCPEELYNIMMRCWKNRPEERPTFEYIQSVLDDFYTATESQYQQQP

[29] = target: Serine/threonine-protein kinase MARK2 (Homo sapiens) (UniProt Q7KZI7); conditions: Compound concentration 1000.0 nM
[30] = target: Wee1-like protein kinase 2 (Homo sapiens) (UniProt P0C1S8); conditions: Compound concentration 1000.0 nM
[31] = tested on: Tyrosine-protein kinase ABL1 (Homo sapiens), P00519 [Y253F]; conditions: Compound concentration 1000.0 nM
[32] = target: Proto-oncogene tyrosine-protein kinase Src (Homo sapiens) (UniProt P12931); conditions: Compound concentration 1000.0 nM
[33] = target: D(4) dopamine receptor (Homo sapiens) (UniProt P21917); conditions: Compound concentration 10.0 uM
D(4) dopamine receptor (Homo sapiens), sequence (P21917 whole entry): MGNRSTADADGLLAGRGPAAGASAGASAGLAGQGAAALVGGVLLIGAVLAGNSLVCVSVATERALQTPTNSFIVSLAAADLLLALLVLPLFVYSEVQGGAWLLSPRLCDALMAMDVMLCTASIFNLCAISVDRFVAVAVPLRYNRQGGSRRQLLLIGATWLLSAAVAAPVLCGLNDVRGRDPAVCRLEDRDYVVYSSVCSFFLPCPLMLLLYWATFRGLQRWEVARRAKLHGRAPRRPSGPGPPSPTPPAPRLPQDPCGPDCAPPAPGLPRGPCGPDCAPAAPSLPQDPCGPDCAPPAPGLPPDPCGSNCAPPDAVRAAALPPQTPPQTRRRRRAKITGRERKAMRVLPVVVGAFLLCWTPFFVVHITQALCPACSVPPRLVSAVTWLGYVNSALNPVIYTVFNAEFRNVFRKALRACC

[34] = target: Mu-type opioid receptor (Homo sapiens) (UniProt P35372); conditions: Compound concentration 10.0 uM
[35] = target: Cyclin-dependent kinase 3 (Homo sapiens) (UniProt Q00526); conditions: Compound concentration 1000.0 nM
Cyclin-dependent kinase 3 (Homo sapiens), sequence (Q00526 whole entry, looked up): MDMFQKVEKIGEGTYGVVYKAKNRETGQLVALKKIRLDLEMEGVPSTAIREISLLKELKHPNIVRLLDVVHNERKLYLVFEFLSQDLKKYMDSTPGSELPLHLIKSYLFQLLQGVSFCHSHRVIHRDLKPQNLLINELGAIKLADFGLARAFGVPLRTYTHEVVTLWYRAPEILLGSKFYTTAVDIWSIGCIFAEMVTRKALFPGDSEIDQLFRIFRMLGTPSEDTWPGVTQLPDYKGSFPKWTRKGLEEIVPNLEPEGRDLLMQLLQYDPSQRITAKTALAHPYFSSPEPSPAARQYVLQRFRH

[36] = target: Tyrosine-protein kinase ITK/TSK (Homo sapiens) (UniProt Q08881); conditions: Compound concentration 1000.0 nM
[37] = tested on: Mast/stem cell growth factor receptor Kit (Homo sapiens), P10721 [V559D,T670I]; conditions: Compound concentration 1000.0 nM
Mast/stem cell growth factor receptor Kit (Homo sapiens), P10721 [V559D,T670I], sequence (P10721 whole entry V559D/T670I): as the sequence (P10721 whole entry) above, with V559D, T670I counted along it

[38] = target: Tyrosine-protein kinase Blk (Homo sapiens) (UniProt P51451); conditions: Compound concentration 1000.0 nM
[39] = target: Ribosomal protein S6 kinase alpha-5 (Homo sapiens) (UniProt O75582); conditions: Compound concentration 1000.0 nM
[40] = target: Ephrin type-A receptor 7 (Homo sapiens) (UniProt Q15375); conditions: Compound concentration 1000.0 nM
[41] = target: Phosphatidylinositol 5-phosphate 4-kinase type-2 beta (Homo sapiens) (UniProt P78356); conditions: Compound concentration 1000.0 nM
[42] = tested on: Receptor-type tyrosine-protein kinase FLT3 (Homo sapiens), P36888 [D835H]; conditions: Compound concentration 1000.0 nM
[43] = tested on: Receptor-type tyrosine-protein kinase FLT3 (Homo sapiens), P36888 [UNDEFINED MUTATION]; conditions: Compound concentration 1000.0 nM
[44] = target: Cyclin-dependent kinase 2 homolog (Plasmodium falciparum (isolate 3D7)) (UniProt P61075); conditions: Compound concentration 1000.0 nM
[45] = target: Tyrosine-protein kinase ABL1 (Homo sapiens) (UniProt P00519); conditions: Compound concentration 1000.0 nM

Nc1cnc(N2CCc3cc(S(=O)(=O)Nc4c(F)cc(Cl)cc4F)cc(N4CCCC4=O)c32)nc1
inactive: residual activity [1] 89% | residual activity [2] 100% | residual activity [3] 97% | residual activity [4] 100% | residual activity [5] 96% | residual activity [6] 93% | residual activity [7] 62% | residual activity [8] 100% | residual activity [9] 100% | inhibition [10] -4.87% | residual activity [11] 84% | residual activity [12] 100% | residual activity [13] 88% | residual activity [14] 83% | residual activity [15] 100% | residual activity [16] 100% | residual activity [17] 100% | residual activity [18] 100% | residual activity [19] 100% | residual activity [20] 100% | residual activity [21] 100% | inhibition [22] -3.08% | residual activity [23] 100% | residual activity [24] 100% | residual activity [25] 100% | residual activity [26] 74% | residual activity [27] 100% | residual activity [28] 100% | residual activity [29] 74% | residual activity [30] 93% | residual activity [31] 94% | residual activity [32] 99% | inhibition [33] -5.02% | inhibition [34] -1.31% | residual activity [35] 100% | residual activity [36] 100% | residual activity [37] 100% | residual activity [38] 100% | residual activity [39] 95% | residual activity [40] 85% | residual activity [41] 100% | residual activity [42] 100% | residual activity [43] 92% | residual activity [44] 100% | residual activity [45] 97%

Cn1nc(C(F)(F)F)cc1-c1cnc(N2CCc3cc(S(=O)(=O)Nc4c(F)cc(Cl)cc4F)cc(N4CCCC4=O)c32)nc1 [TP-020]
inactive: residual activity [1] 100% | residual activity [2] 94% | residual activity [3] 98% | residual activity [4] 100% | residual activity [5] 90% | residual activity [6] 96% | residual activity [7] 83% | residual activity [8] 100% | residual activity [9] 83% | inhibition [10] 7.89% | residual activity [11] 83% | residual activity [12] 100% | residual activity [13] 100% | residual activity [14] 94% | residual activity [15] 80% | residual activity [16] 84% | residual activity [17] 100% | residual activity [18] 97% | residual activity [19] 98% | residual activity [20] 100% | residual activity [21] 100% | inhibition [22] 17.4% | residual activity [23] 91% | residual activity [24] 100% | residual activity [25] 70% | residual activity [26] 88% | residual activity [27] 100% | residual activity [28] 95% | residual activity [29] 100% | residual activity [30] 100% | residual activity [31] 95% | residual activity [32] 100% | inhibition [33] 9.09% | inhibition [34] 9.44% | residual activity [35] 91% | residual activity [36] 97% | residual activity [37] 88% | residual activity [38] 100% | residual activity [39] 86% | residual activity [40] 78% | residual activity [41] 100% | residual activity [42] 100% | residual activity [43] 96% | residual activity [44] 73% | residual activity [45] 95%
